Data on 17 compounds can be found in patent publication US20260132132A1, “3A,4,5,6-TETRAHYDRO-1 H-PYRAZOLO[3,4-C]PYRIDIN-7(7AH)-ONE DERIVATIVES AS FACTOR XIIA INHIBITORS” (KALVISTA PHARMACEUTICALS LIMITED, priority 2022, published 2026).

The IC50 is the point on the concentration scale where inhibition reaches its midpoint.

One assay addresses FXa (Homo sapiens, UniProt P00742). The experiment in a line: Related protease inhibition: FXa, fluorogenic substrate. The class given is biochemical. Conditions: fluorogenic substrate at Km, 25° C.; H1-H3 = % activity at 40 μM. How it is done: Human serine protease enzyme Plasma Kallikrein, KLK1, FXa, Plasmin, Thrombin and Trypsin were assayed for enzymatic activity using an appropriate fluorogenic substrate at Km concentration, FXIa at fixed substrate concentration of 100 μM and various concentrations of the test compound.

For assay [1], the target named is T1, Human Factor XIIa (hFXIIa) (Homo sapiens, UniProt P00748).
T1 construct: purchased Enzyme Research Laboratories
T1 sequence (P00748 373-615 limits assumed): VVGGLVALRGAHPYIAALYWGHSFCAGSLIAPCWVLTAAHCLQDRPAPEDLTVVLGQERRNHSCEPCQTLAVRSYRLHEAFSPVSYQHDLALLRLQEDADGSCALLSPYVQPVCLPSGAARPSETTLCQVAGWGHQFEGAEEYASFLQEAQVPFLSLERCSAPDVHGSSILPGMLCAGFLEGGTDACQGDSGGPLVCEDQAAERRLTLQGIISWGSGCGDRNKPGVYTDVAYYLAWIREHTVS
T1 sequence (P00748 20-372 partner limits assumed): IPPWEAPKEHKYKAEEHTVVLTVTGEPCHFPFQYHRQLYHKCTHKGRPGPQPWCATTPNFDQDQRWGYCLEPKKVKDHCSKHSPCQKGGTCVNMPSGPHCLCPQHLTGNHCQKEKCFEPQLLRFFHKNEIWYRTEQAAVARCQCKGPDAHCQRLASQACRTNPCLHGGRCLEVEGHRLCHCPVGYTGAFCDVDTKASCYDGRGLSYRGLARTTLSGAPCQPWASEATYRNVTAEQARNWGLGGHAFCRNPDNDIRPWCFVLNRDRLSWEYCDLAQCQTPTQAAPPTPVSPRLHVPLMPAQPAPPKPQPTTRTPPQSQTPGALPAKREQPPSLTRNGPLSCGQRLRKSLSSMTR
Kind of assay: Determination of Human Factor XIIa (hFXIIa) inhibition, fluorogenic substrate IC50 assay. The class given is biochemical. Conditions: fluorogenic substrate H-DPro-Phe-Arg-AFC at Km, 25° C., read-out: Human FXIIa IC50. The method, then: Determination of Human Factor XIIa (hFXIIa) inhibition
The Km for the cleavage of the substrate by hFXIIa was determined by standard transformation of the Michaelis-Menten equation, with subsequent inhibition assays performed at substrate Km concentration.

FXa, sequence (P00742 235-488 limits assumed): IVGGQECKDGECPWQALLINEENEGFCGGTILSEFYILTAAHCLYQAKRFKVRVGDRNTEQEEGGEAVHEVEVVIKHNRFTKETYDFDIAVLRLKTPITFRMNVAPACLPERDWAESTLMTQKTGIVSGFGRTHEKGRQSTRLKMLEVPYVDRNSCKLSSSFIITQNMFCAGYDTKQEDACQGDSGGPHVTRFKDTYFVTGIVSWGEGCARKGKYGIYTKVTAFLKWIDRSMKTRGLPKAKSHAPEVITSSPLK
FXa, sequence (P00742 41-179 partner limits assumed): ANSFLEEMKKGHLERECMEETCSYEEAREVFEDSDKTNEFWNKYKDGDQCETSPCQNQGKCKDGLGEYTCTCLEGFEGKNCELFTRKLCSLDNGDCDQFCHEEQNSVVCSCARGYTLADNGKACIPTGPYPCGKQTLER

Take `CN1CCc2ccc(N3CCc4c(C(=O)NCc5cccnc5)nn(-c5cccc(Cl)c5)c4C3=O)cc2C1` [Example 1015, 1-(3-chlorophenyl)-6-(2-methyl-1,2,3,4-tetrahydroisoquinolin-7-yl)-7-oxo-N-(pyridin-3-ylmethyl)-4,5,6,7-tetrahydro-1H-pyrazolo[3,4-c]pyridine-3-carboxamide]: the results for the IC50 (against FXa; in assay [1]) were 10 to 40 µM and 0.1 to 0.3 µM, respectively.

Take `O=C(NCc1ccccc1)c1nn(-c2cccc(Cl)c2)c2c1CCN(c1ccc3c(c1)CN(CC1CC1)CC3)C2=O` [Example 1019, N-benzyl-1-(3-chlorophenyl)-6-(2-(cyclopropylmethyl)-1,2,3,4-tetrahydroisoquinolin-7-yl)-7-oxo-4,5,6,7-tetrahydro-1H-pyrazolo[3,4-c]pyridine-3-carboxamide]: the half-maximal inhibitory concentration (IC50) at FXa is greater than 40 µM; in assay [1], 0.1 to 0.3 µM.

`CCN1CCc2ccc(N3CCc4c(C(=O)NCc5ccccc5)nn(-c5cccc(Cl)c5)c4C3=O)cc2C1` [Example 1021, N-benzyl-1-(3-chlorophenyl)-6-(2-ethyl-1,2,3,4-tetrahydroisoquinolin-7-yl)-7-oxo-4,5,6,7-tetrahydro-1H-pyrazolo[3,4-c]pyridine-3-carboxamide]: the IC50 against FXa was 3 to 10 µM; in assay [1], 0.01 to 0.1 µM.

As to `CC(C)N1CCc2ccc(N3CCc4c(C(=O)NCc5ccccc5)nn(-c5cccc(Cl)c5)c4C3=O)cc2C1` [Example 1022, N-benzyl-1-(3-chlorophenyl)-6-(2-isopropyl-1,2,3,4-tetrahydroisoquinolin-7-yl)-7-oxo-4,5,6,7-tetrahydro-1H-pyrazolo[3,4-c]pyridine-3-carboxamide], the IC50 against FXa lay in the range of 3 to 10 µM; in assay [1] it was 0.01 to 0.1 µM.

Regarding `CN1CCc2ccc(N3CCc4c(C(=O)NCC5CCCCC5)nn(-c5cccc(Cl)c5)c4C3=O)cc2C1` [Example 1023, 1-(3-chlorophenyl)-N-(cyclohexylmethyl)-6-(2-methyl-1,2,3,4-tetrahydroisoquinolin-7-yl)-7-oxo-4,5,6,7-tetrahydro-1H-pyrazolo[3,4-c]pyridine-3-carboxamide], the half-inhibitory concentration (IC50) was 3 to 10 µM against FXa and 0.1 to 0.3 µM in assay [1].

`CN1CCc2ccc(N3CCc4c(C(=O)NCC5CCCO5)nn(-c5cccc(Cl)c5)c4C3=O)cc2C1` (stereo not shown) [Example 1025, 1-(3-chlorophenyl)-6-(2-methyl-1,2,3,4-tetrahydroisoquinolin-7-yl)-7-oxo-N-((tetrahydrofuran-2-yl)methyl)-4,5,6,7-tetrahydro-1H-pyrazolo[3,4-c]pyridine-3-carboxamide]: the IC50 on FXa is 3 to 10 µM; in assay [1], 0.3 to 1 µM.

Regarding `CN1CCc2ccc(N3CCc4c(C(=O)NCC5CCOC5)nn(-c5cccc(Cl)c5)c4C3=O)cc2C1` (stereo not shown) [Example 1026, 1-(3-chlorophenyl)-6-(2-methyl-1,2,3,4-tetrahydroisoquinolin-7-yl)-7-oxo-N-((tetrahydrofuran-3-yl)methyl)-4,5,6,7-tetrahydro-1H-pyrazolo[3,4-c]pyridine-3-carboxamide], the IC50 is 10 to 40 µM against FXa and 0.3 to 1 µM in assay [1].

As for `O=C(NCc1ccccc1)c1nn(-c2cccc(Cl)c2)c2c1CCN(c1ccc3c(c1)CN(C1CC1)CC3)C2=O` [Example 1029, N-benzyl-1-(3-chlorophenyl)-6-(2-cyclopropyl-1,2,3,4-tetrahydroisoquinolin-7-yl)-7-oxo-4,5,6,7-tetrahydro-1H-pyrazolo[3,4-c]pyridine-3-carboxamide], the IC50 at FXa was greater than 100 µM; in assay [1] it was 0.3 to 1 µM.

As to `CN1CCCc2ccc(N3CCc4c(C(=O)NCc5ccccc5)nn(-c5cccc(Cl)c5)c4C3=O)cc2C1` [Example 1030, N-benzyl-1-(3-chlorophenyl)-6-(2-methyl-2,3,4,5-tetrahydro-1H-benzo[c]azepin-8-yl)-7-oxo-4,5,6,7-tetrahydro-1H-pyrazolo[3,4-c]pyridine-3-carboxamide], the results for the IC50 (against FXa; in assay [1]) were 3 to 10 µM and 0.1 to 0.3 µM, respectively.

As for `CCN1CCc2ccc(N3CCc4c(C(=O)NCC5CC5)nn(-c5cccc(Cl)c5)c4C3=O)cc2C1` [Example 1031, 1-(3-chlorophenyl)-N-(cyclopropylmethyl)-6-(2-ethyl-1,2,3,4-tetrahydroisoquinolin-7-yl)-7-oxo-4,5,6,7-tetrahydro-1H-pyrazolo[3,4-c]pyridine-3-carboxamide], the concentration for half-maximal inhibition (IC50) lay within 10 to 40 µM on FXa and 0.1 to 0.3 µM in assay [1].

On to `O=C(NCC1CC1)c1nn(-c2cccc(Cl)c2)c2c1CCN(c1ccc3c(c1)CN(C1COC1)CC3)C2=O` [Example 1032, 1-(3-chlorophenyl)-N-(cyclopropylmethyl)-6-(2-(oxetan-3-yl)-1,2,3,4-tetrahydroisoquinolin-7-yl)-7-oxo-4,5,6,7-tetrahydro-1H-pyrazolo[3,4-c]pyridine-3-carboxamide], for which the IC50 against FXa is greater than 40 µM; in assay [1], 0.3 to 1 µM.

As to `O=C(NCC1CC1)c1nn(-c2cccc(Cl)c2)c2c1CCN(c1ccc3c(c1)CN(CC1CC1)CC3)C2=O` [Example 1036, 1-(3-chlorophenyl)-N-(cyclopropylmethyl)-6-(2-(cyclopropylmethyl)-1,2,3,4-tetrahydroisoquinolin-7-yl)-7-oxo-4,5,6,7-tetrahydro-1H-pyrazolo[3,4-c]pyridine-3-carboxamide], the IC50 was greater than 40 µM against FXa and 0.3 to 1 µM in assay [1].

As to `CN1CCc2ccc(N3CCc4c(C(=O)NC5CCOCC5)nn(-c5cccc(Cl)c5)c4C3=O)cc2C1` [Example 1043, 1-(3-chlorophenyl)-6-(2-methyl-1,2,3,4-tetrahydroisoquinolin-7-yl)-7-oxo-N-(tetrahydro-2H-pyran-4-yl)-4,5,6,7-tetrahydro-1H-pyrazolo[3,4-c]pyridine-3-carboxamide], the values for the IC50 (on FXa; in assay [1]) were 3 to 10 µM and 0.3 to 1 µM, respectively.

For the compound `CCN1CCc2ccc(N3CCc4c(C(=O)N[C@H](CO)c5ccccc5)nn(-c5cccc(Cl)c5)c4C3=O)cc2C1` [Example 1051, (S)-1-(3-chlorophenyl)-6-(2-ethyl-1,2,3,4-tetrahydroisoquinolin-7-yl)-N-(2-hydroxy-1-phenylethyl)-7-oxo-4,5,6,7-tetrahydro-1H-pyrazolo[3,4-c]pyridine-3-carboxamide], the IC50 against FXa fell in the range of 3 to 10 µM; in assay [1], 0.01 to 0.1 µM.

Take `O=C(NCC1CC1)c1nn(-c2cccc(Cl)c2)c2c1CCN(c1ccc3c(c1)CNCC3)C2=O` [Example 1074, 1-(3-chlorophenyl)-N-(cyclopropylmethyl)-7-oxo-6-(1,2,3,4-tetrahydroisoquinolin-7-yl)-4,5,6,7-tetrahydro-1H-pyrazolo[3,4-c]pyridine-3-carboxamide]: the IC50 lay in the range of 10 to 40 µM on FXa and 1 to 3 µM in assay [1].

`O=C(NC1CCOCC1)c1nn(-c2cccc(Cl)c2)c2c1CCN(c1ccc3c(c1)CN(CCO)CC3)C2=O` [Example 1076, 1-(3-chlorophenyl)-6-(2-(2-hydroxyethyl)-1,2,3,4-tetrahydroisoquinolin-7-yl)-7-oxo-N-(tetrahydro-2H-pyran-4-yl)-4,5,6,7-tetrahydro-1H-pyrazolo[3,4-c]pyridine-3-carboxamide]: the IC50 against FXa fell in the range of 10 to 40 µM; in assay [1], 0.1 to 0.3 µM.

With `Cc1cc(CNC(=O)c2nn(-c3cccc(Cl)c3)c3c2CCN(c2ccc4c(c2)CN(CCO)CC4)C3=O)[nH]n1` [Example 1077, 1-(3-chlorophenyl)-6-(2-(2-hydroxyethyl)-1,2,3,4-tetrahydroisoquinolin-7-yl)-N-((3-methyl-1H-pyrazol-5-yl)methyl)-7-oxo-4,5,6,7-tetrahydro-1H-pyrazolo[3,4-c]pyridine-3-carboxamide], the IC50 against FXa was 3 to 10 µM; in assay [1] it was 0.01 to 0.1 µM.
